The values below come from patent US20260265055A1, “Sulfine-Based Compounds for Generating Hydrogen Persulfide” (Brown University, priority 2023, published 2026).

For one experiment, the target named is T1, GAPDH (Oryctolagus cuniculus, UniProt P46406).
T1 construct: GAPDH (from rabbit muscle, #G2267, Sigma-Aldrich); purchased Sigma-Aldrich G2267; host or cells: rabbit muscle (tissue-purified)
Kind of experiment: GAPDH protein S-persulfidation (SSP4 fluorescence, LC-MS/MS). The experiment is classed as biochemical, rabbit. On the procedure: One of the primary functions of H2S2 is to induce protein S-persulfidation. Existing methods treat proteins with Na2S2 directly to obtain the persulfidated proteins. The present disclosure contemplates the use of TTS and H2S to persulfidate proteins as a comparison with Na2S2. GAPDH was used as the protein model and its persulfidation was evaluated by SSP4 using a protocol described in Shieh, M. et al., Shining a light on SSP4: a comprehensive analysis and biological applications for the detection of sulfane sulfurs. Redox Biol. 2022, 56, 102433 and Ni, X. et al., A sweet H2S/H2O2 dual release system and specific protein S-persulfidation mediated by thioglucose/glucose oxidase. J. Am. Chem. Soc. 2021, 143, 13325-13332. Reduced GAPDH (100 μM) was individually treated with 10 eq. of TTS+Na2S or Na2S2, as well as control reagents (TTS or Na2S only). The protein samples were then purified using Zeba Spin Desalting Columns (7K MWCO), diluted (to 10 μM), and treated with SSP4 (5 μM). Fluorescence signals were recorded to reflect persulfidation levels. […] To provide further evidence of persulfidation in the GAPDH system, TTS+Na2S-treated GAPDH was alkylated with HPE-IAM to stabilize the protein persulfides.
216 μL of PBS (50 mM, pH 7.4) was added to 3.9 mg of GAPDH (from rabbit muscle, #G2267, Sigma-Aldrich) to obtain a concentration of 500 μM (MW: 36 kDa). DTT (10 mM in DMSO, 11.35 μL) was added for a final equal concentration with the GAPDH. The solution was incubated in the dark at room temperature for 30 min. Zeba 7K MWCO spin columns were prepared and used according to manufacturer's instructions with 3 PBS washes. Excess reductant was removed by column purification with the Zeba 7K MWCO columns. The resulting reduced protein concentration was determined by the absorbance at 280 nm (εmM=30.4 mM-1 cm-1) using the Nanodrop One Microvolume UV-Vis Spectrophotometer (ThermoFisher Scientific). For controls, reduced GAPDH was treated with NEM (1:5 equiv.) and incubated at rt in the dark for 30 min before excess NEM was removed by the Zeba 7K MWCO columns. Next, the reduced protein was diluted to a final concentration of 100 μM in a final volume of 100 μL and treated with TTS (10 μL of 10 mM in DMSO for a final concentration of 1 mM), Na2S (10 μL of 10 mM in MilliQ H2O for a final concentration of 1 mM), both TTS and Na2S, or Na2S2 (10 μL of 10 mM in MilliQ H2O for a final concentration of 1 mM). For example, if the reduced protein (361 μM) was only to be treated with TTS, 62.3 μL of PBS (50 mM, pH 7.4) would first be added to an Eppendorf tube, followed by 27.7 μL of protein, and followed by 10 μL of TTS. TTS+Na2S and Na2S2 samples were also prepared at the concentrations above without any protein, where PBS (50 mM, pH 7.4) was used in place of the proteins (volume-wise). Samples were incubated at room temperature for 30 min in the dark before being purified by Zeba 7K MWCO columns (three times to ensure proper removal of excess treatment molecules) and quantified by absorbance. […] All samples were then incubated with SSP4 (5 μL of 100 μM in DMSO for a final concentration of 5 μM) in individual wells of a black clear flat bottom 96-well plate. The final volume was 100 μL. For example, if the persulfidated protein (99.5 μM) was to be examined, 84.95 μL of PBS (50 mM, pH 7.4) would first be added to a well, followed by 10.05 μL of protein, and then followed by 5 μL of SSP4. Incubation occurred at room temperature in the dark for 30 min before being measured on the SpectraMax iD3 microplate reader (ex: 485 nm; em: 525 nm).

Experiment [1] is described as follows: Measurement of H2S2 formation from JK-1 with TTS (SSP4). The following applies: TTS 200 μM + JK-1 400 μM, 30 min incubation, pH 7.4. On the procedure:
Measurement of H2S2 formation from JK-1 with TTS: JK-1 (1.1 mg) was added to a 1 dram vial and 4.484 mL of 50 mM PBS (pH 6.0) was then added to obtain a 1 mM stock solution with no headspace in the vial. The solution was vortexed to mix and then incubated in the dark at rt for 20 min. Based on the H2S-release profile reported under the same conditions (see Kang, J. et al., J. Am. Chem. Soc. 2016, 138, 6336), 400 μM of H2S (40% of 1 mM) should be released. The pH of the solution was then adjusted to 7.4 by adding 16 μL 2N NaOH. The same volume of 50 mM PBS (pH 6.0) buffer was added to an empty 1 dram vial and 16 μL of 2N NaOH was added to adjust the pH of the buffer similarly for the controls. After incubation, 500 μL of the pH-adjusted PBS was aliquoted to nine 1.5 mL Eppendorf tubes while the same volume of JK-1 solution was aliquoted into six 1.5 mL Eppendorf tubes. […] 200 μL of each tube was then added to separate wells on a 96-well black flat clear-bottomed plate before being measured on a Molecular Devices SpectraMax iD3 Multi-Mode Microplate Reader (emission 535 nm; excitation 485 nm; integration time […], low PMT sensitivity, attenuation 1, read height 3.00 mm).
JK-1 in buffer was mixed with TTS to generate H2S2. After a 30 min incubation, the formation of H2S2 was measured by SSP4.

T1 sequence (P46406 whole entry): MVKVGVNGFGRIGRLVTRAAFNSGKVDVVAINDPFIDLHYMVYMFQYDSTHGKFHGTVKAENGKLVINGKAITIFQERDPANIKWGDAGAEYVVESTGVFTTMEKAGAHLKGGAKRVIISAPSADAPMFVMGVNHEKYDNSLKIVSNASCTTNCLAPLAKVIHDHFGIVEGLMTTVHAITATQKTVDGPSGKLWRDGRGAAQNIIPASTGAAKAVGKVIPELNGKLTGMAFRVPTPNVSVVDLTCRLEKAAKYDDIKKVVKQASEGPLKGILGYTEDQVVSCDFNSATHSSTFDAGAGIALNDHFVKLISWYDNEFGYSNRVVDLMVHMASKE

For `COC(=O)c1ccc(=S=O)sc1` [TTS, 2H-thiopyran-2-thione sulfine], the “GAPDH persulfidation signal compared with Na2S2” value on GAPDH (TTS 1 mM + Na2S 1 mM vs Na2S2 1 mM, one-way ANOVA) was “significantly higher signals than Na2S2”. Moreover, the “GAPDH persulfidation by LC-MS/MS after HPE-IAM alkylation and trypsin digestion” value at GAPDH (TTS+Na2S-treated GAPDH) is reported as “successful protein persulfidation”. Moreover, the figures for the “SSP4 fluorescence of persulfidated GAPDH” value at GAPDH (reduced GAPDH 100 μM treated with TTS 1 mM + Na2S 1 mM) and at GAPDH (reduced GAPDH 100 μM treated with the reagent only (1 mM)) were “strong fluorescence” and “did not give any notable fluorescence”, respectively. For the same compound, in experiment [1], the “SSP4 fluorescence (H2S2 formation)” value was “strong fluorescence”.
